Source: paper PMC12198282, “Application of a high-density microelectrode array assay using a 3D human iPSC-derived brain microphysiological system model for in vitro neurotoxicity screening of environmental compounds” (Archives of Toxicology, 2025)
Like-named read-outs stand apart in the source and are kept apart here.

Tests used:
[1] = test system: human iPSC-derived 3D BrainSpheres; assay: BrainSphere MEA assay (HD-MEA, 13-day exposure, concentration-response); format: cell-based; conditions: for AC50: concentration at 50% maximal activity, Supplement 3 prints it also for curves with hit call 0; as to hitc Mean.Spheroid.Burst.Duration: key: 1 (active); 0 (inactive); as to hitc Mean.Spheroid.Burst.ISI: key: 1 (active); 0 (inactive); as to hitc Mean.Spheroid.Burst.Peak.Firing.Rate: key: 1 (active); 0 (inactive); as to hitc Mean.Spheroid.Firing.Rate: key: 1 (active); 0 (inactive); as to hitc Mean.Spheroid.IBI: key: 1 (active); 0 (inactive); as to hitc Mean.Spheroid.Nonburst.ISI: key: 1 (active); 0 (inactive); as to hitc Mean.Spheroid.Spikes.per.Burst.per.Electrode: key: 1 (active); 0 (inactive); as to hitc Mean.Spheroid.Spikes.per.Burst: key: 1 (active); 0 (inactive); as to hitc Spheroid.Burst.Frequency: key: 1 (active); 0 (inactive); as to hitc Spheroid.Spike.Amplitude.90th.Percentile: key: 1 (active); 0 (inactive)
Experimental: A volume of 1 ml of Tergazyme (1% solution in deionized water) was added to each well of the MaxTwo 6-Well Plate (MaxWell Biosystems) and incubated overnight under constant gyratory shaking (88 RPM) at 37 °C and 5% CO2. The next day, Tergazyme solution was removed, and plates were washed with distilled water and ethanol. After remaining ethanol was evaporated, wells were washed with PBS. Then, 200 µl of Poly-D-Lysine (Gibco, A38904 - 01) was added on top of the electrodes and incubated at 37 °C and 5% CO2 for 3 h (humidified). Poly-D-Lysine was then removed, and wells were coated with 100 µl of 0.1 mg/ml laminin coating solution (Sigma-Aldrich, L2020 - 1 mg) and incubated for 2 h at 37 ℃ and 5% CO2 (humidified). The laminin was removed after incubation. Using a 1 ml micropipette, 1 ml of medium containing BrainSpheres (7 weeks differentiated), approximately 25 BrainSpheres per ml, was plated on top of the HD-MEA chip (Fig. 1A). Afterwards, the plate was placed in an incubator at 37 °C and 5% CO2 and moved in circles to accumulate the BrainSpheres on top of the electrode area (Fig. 1A). The plate was kept in an incubator (humidified) for 2 days to allow attachment of the BrainSpheres with no gyratory shaking of the plates.
The MaxTwo high-density microelectrode array system (MaxWell Biosystems AG, Zurich, Switzerland) was used to measure neural activity with MaxTwo 6-well plates, where every well includes an integrated chip with 26,400 platinum electrodes arranged in an area of 3.85 × 2.10 mm^2 ([…]) (Muller et al. [2015]). The data were recorded and analyzed with the MaxLab Live Software (version 22.2.22). First, the MaxLab live ActivityScan Assay was used to identify the activity and positioning of the BrainSpheres on the array by scanning all the 26,400 electrodes in 29 configurations in a well (Assay Parameters: Configuration = Full; Recording time per configuration = 60 s (s)). The settings gain = 512, high-pass-filter (HPF): ~ 1 Hz and spike threshold = 5 X root-mean square (RMS) noise were used for all HD-MEA recordings. Circular regions of interest (ROI) were manually selected in the Activity Map where neuronal activity was apparent by an increased activity (Fig. 2). Over the course of the 13-day experiment, the same selected regions and electrodes were measured using the MaxLab Live Network Assay (600 s recording time).
A custom analysis framework was used to extract the MaxLab Live neuronal metrics for the individual BrainSpheres. For this, electrodes comprising a single ROI (i.e., individual BrainSphere; Fig. 2D) were grouped using distance-based clustering (fcluster method of Scipy library, Python 3.7) and neural metrics were calculated for the clustered electrodes for every ROI separately. Figure 2E presents a raster plot illustrating the activity associated with individual Regions of Interest (ROIs). […] Ten MaxLab Live neural metrics (endpoints) were evaluated from the MaxLab live ActivityScan and Network Assay in this study. See Table 3 for the endpoint definitions, tuned parameters, and activity type (general versus network connectivity).
The BrainSphere MEA assay measured changes in neural activity during a 13-day chemical exposure. The first recording day of the concentration–response screening protocol (day of exposure (DOE) 0) occurred after 7 weeks of BrainSphere differentiation, 48 h after plating on HD-MEA plates (Fig. 1B). The study included at least three biological replicates (one well per plate) from separate experiments (e.g., three different plates on three different days) and each well included multiple BrainSpheres which were considered technical replicates.

[2] = test system: 2D rat cortical cultures; conditions: cytotoxicity LDH, cited from earlier work
[3] = test system: 2D rat cortical cultures; conditions: cited from earlier work
[4] = AUC over 13-day exposure, tcplfit2
[5] = tcplfit2 BMD at benchmark response (1.349*SD of baseline controls)
[6] = tcplfit2 output ACC, activity cutoff in Supplemental Table 1
[7] = top of winning model, response normalized as percent of vehicle control, negative = decrease

Brc1ccc(Oc2ccc(Br)cc2Br)c(Br)c1 [BDE- 47]
EC50 ([1]; 5th percentile across active AC50 values per chemical, read-out: Minimum potency): 8.22 µM | Difference of minimum potency between BrainSphere MEA assay and rNFA ([1]; 5th percentile of AC50 values by chemical, above 0.5 = more potent in the rNFA): more than 0.5 log10 µM | hitc Mean.Spheroid.Burst.Duration [1, 4]: 1 | hitc Mean.Spheroid.Burst.ISI [1, 4]: 1 | hitc Mean.Spheroid.Burst.Peak.Firing.Rate [1, 4]: 1 | hitc Mean.Spheroid.Firing.Rate [1, 4]: 1 | hitc Mean.Spheroid.IBI [1, 4]: 0 | hitc Mean.Spheroid.Nonburst.ISI [1, 4]: 0 | hitc Mean.Spheroid.Spikes.per.Burst [1, 4]: 1 | hitc Mean.Spheroid.Spikes.per.Burst.per.Electrode [1, 4]: 1 | hitc Spheroid.Burst.Frequency [1, 4]: 1 | hitc Spheroid.Spike.Amplitude.90th.Percentile [1, 4]: 1 | AC50 ([1]; listed as BDE-47, read-out: ac50 Mean.Spheroid.Burst.Duration): 14.4 µM | AC50 ([1]; listed as BDE-47, read-out: ac50 Mean.Spheroid.Burst.Peak.Firing.Rate): 9.74 µM | AC50 ([1]; listed as BDE-47, read-out: ac50 Mean.Spheroid.Firing.Rate): 7.84 µM | AC50 ([1]; listed as BDE-47, read-out: ac50 Spheroid.Burst.Frequency): 8.92 µM | AC50 ([1]; listed as BDE-47, read-out: ac50 Spheroid.Spike.Amplitude.90th.Percentile): 13.4 µM | AC50 ([1]; listed as BDE−47, read-out: ac50 Mean.Spheroid.Burst.Duration): 14 µM | AC50 ([1]; listed as BDE−47, read-out: ac50 Mean.Spheroid.Burst.Peak.Firing.Rate): 9.7 µM | AC50 ([1]; listed as BDE−47, read-out: ac50 Mean.Spheroid.Firing.Rate): 7.8 µM | AC50 ([1]; listed as BDE−47, read-out: ac50 Spheroid.Burst.Frequency): 8.9 µM | AC50 ([1]; listed as BDE−47, read-out: ac50 Spheroid.Spike.Amplitude.90th.Percentile): 13 µM | AC50 ([1]; read-out: ac50 Mean.Spheroid.Burst.ISI): 13.4 µM | AC50 ([1]; read-out: ac50 Mean.Spheroid.IBI): 45 µM | AC50 ([1]; read-out: ac50 Mean.Spheroid.Spikes.per.Burst): 14.3 µM | AC50 ([1]; read-out: ac50 Mean.Spheroid.Spikes.per.Burst.per.Electrode): 8.93 µM | EC50 ([1]; mean across active AC50 values per chemical, read-out: Mean potency): 11.4 µM | Percent active ([1]; metrics active out of the total number of metrics screened): 80% | BMD Mean.Spheroid.Burst.Duration [1, 5]: 8.9 µM | BMD Mean.Spheroid.Burst.ISI [1, 5]: 7.8 µM | BMD Mean.Spheroid.Burst.Peak.Firing.Rate [1, 5]: 7.1 µM | BMD Mean.Spheroid.Firing.Rate [1, 5]: 7.9 µM | BMD Mean.Spheroid.IBI [1, 5]: 34 µM | BMD Mean.Spheroid.Nonburst.ISI [1, 5]: 48 µM | BMD Mean.Spheroid.Spikes.per.Burst [1, 5]: 12 µM | BMD Mean.Spheroid.Spikes.per.Burst.per.Electrode [1, 5]: 7 µM | BMD Spheroid.Burst.Frequency [1, 5]: 10 µM | BMD Spheroid.Spike.Amplitude.90th.Percentile [1, 5]: 6.7 µM | ACC Mean.Spheroid.Burst.Duration [1, 6]: 7.9 µM | ACC Mean.Spheroid.Burst.ISI [1, 6]: 4.8 µM | ACC Mean.Spheroid.Burst.Peak.Firing.Rate [1, 6]: 6.6 µM | ACC Mean.Spheroid.Firing.Rate [1, 6]: 11 µM | ACC Mean.Spheroid.IBI [1, 6]: 50 µM | ACC Mean.Spheroid.Nonburst.ISI [1, 6]: 55 µM | ACC Mean.Spheroid.Spikes.per.Burst [1, 6]: 17 µM | ACC Mean.Spheroid.Spikes.per.Burst.per.Electrode [1, 6]: 8.2 µM | ACC Spheroid.Burst.Frequency [1, 6]: 8.5 µM | ACC Spheroid.Spike.Amplitude.90th.Percentile [1, 6]: 9.5 µM | Top Mean.Spheroid.Burst.Duration [1, 7]: −93 | Top Mean.Spheroid.Burst.ISI [1, 7]: −93 | Top Mean.Spheroid.Burst.Peak.Firing.Rate [1, 7]: −93 | Top Mean.Spheroid.Firing.Rate [1, 7]: −92 | Top Mean.Spheroid.IBI [1, 7]: −81 | Top Mean.Spheroid.Nonburst.ISI [1, 7]: −74 | Top Mean.Spheroid.Spikes.per.Burst [1, 7]: −93 | Top Mean.Spheroid.Spikes.per.Burst.per.Electrode [1, 7]: −92 | Top Spheroid.Burst.Frequency [1, 7]: −95 | Top Spheroid.Spike.Amplitude.90th.Percentile [1, 7]: −22 | Hits ([1]; total number of active endpoints out of 10 MEA activity metrics, 13-day exposure): 8 | hitc CCTE_Shafer_MEA_dev_LDH ([2]; rNFA mc5 hit call): 1 | AC50 ([2]; read-out: ac50 CCTE_Shafer_MEA_dev_LDH, rNFA mc5): 12.3 µM | hitc CCTE_Shafer_MEA_dev_AB ([3]; rNFA mc5 hit call, cytotoxicity AlamarBlue): 1 | AC50 ([3]; read-out: ac50 CCTE_Shafer_MEA_dev_AB, rNFA mc5, cytotoxicity AlamarBlue): 8.31 µM | Cytotoxicity in the resazurin assay of the rNFA (in words) ([3]; ref Brown et al. [2016], Carstens et al. [2022], Frank et al. [2017b], Shafer et al. [2019], ToxCast invitrodb (v4.2)): demonstrating cytotoxicity in the rNFA
